Measurements taken from US6924309B2 (Children, Youth and Women's Health Service Incorporated, priority 1999, dated 2005).
Values after ≈ are worked out from the molar mass of the structure shown. Like-named read-outs stand apart in the source and are kept apart here.

Assays:
[1] = molecular target: T1, 15-LO (Glycine max, UniProt P08170); test: Effect on 15-LO catalysed oxidation of arachidonic acid; assay type: biochemical, soybean
T1 construct: purchased Sigma Chemical Company
T1 sequence (P08170 1-839): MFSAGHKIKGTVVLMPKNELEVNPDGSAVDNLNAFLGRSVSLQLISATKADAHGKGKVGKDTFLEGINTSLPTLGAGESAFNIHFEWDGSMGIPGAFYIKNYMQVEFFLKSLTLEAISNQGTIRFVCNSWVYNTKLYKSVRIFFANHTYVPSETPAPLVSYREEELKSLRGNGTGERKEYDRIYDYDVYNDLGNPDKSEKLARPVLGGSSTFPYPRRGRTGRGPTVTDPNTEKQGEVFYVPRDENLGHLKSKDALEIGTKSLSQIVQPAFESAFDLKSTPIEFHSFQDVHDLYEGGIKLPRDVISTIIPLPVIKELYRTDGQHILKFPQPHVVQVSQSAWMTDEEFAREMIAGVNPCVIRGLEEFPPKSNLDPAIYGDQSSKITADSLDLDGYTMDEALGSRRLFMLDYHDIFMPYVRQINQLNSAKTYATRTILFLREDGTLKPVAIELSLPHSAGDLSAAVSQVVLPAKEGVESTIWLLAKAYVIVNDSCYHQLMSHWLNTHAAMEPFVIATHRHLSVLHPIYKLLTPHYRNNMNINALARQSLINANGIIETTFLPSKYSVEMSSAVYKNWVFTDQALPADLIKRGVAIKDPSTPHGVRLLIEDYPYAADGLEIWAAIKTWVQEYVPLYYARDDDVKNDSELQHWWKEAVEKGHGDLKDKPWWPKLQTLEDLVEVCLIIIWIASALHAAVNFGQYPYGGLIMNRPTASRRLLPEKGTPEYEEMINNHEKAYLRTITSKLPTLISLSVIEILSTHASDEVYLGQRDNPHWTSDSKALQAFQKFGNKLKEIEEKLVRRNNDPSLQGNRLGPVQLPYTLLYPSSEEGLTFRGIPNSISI

[2] = Thin film autoxidation of arachidonic acid with compounds 16-19 (HPLC)
Description: Subsequently, the autoxidation of compounds 16-19 and their effects on the autoxidation of arachidonic acid were investigated. In these experiments, a thin film assay method was employed. For each reaction, arachidonic acid was mixed with one of the synthetic compounds 16, 17, 18 or 19 at 1:1 ratio with or without the radical initiator, azobisisobutyronitrile (AIBN). A reverse phase HPLC method was used to simultaneously measure the relative amounts of arachidonic acid and the synthetic compounds 16, 17, 18 or 19 recovered following 60 or 70 hours or 7 days of thin film autoxidation.

[3] = Petri-dish thin film autoxidation of arachidonic acid with thia fatty acids and sulfides (HPLC)
Method: A stock solution in dichioromethane (2 ml) containing arachidonic acid 1 (18 mg) and 3-[(3Z,6Z)-nona-3,6dienylthio]propionic acid 106 (18 mg) was prepared with lauric acid (18 mg) as an internal standard. Samples of the stock solution (100 μl) were added to glass Petri-dishes followed by ethanol (400 μl). After evaporation of the solvent, a well-distributed thin film was formed on each Petri-dish. The Petri-dishes were placed in a desiccator, which was then evacuated, filled with oxygen and stored in the darkness. Dishes were removed from the desiccator after 1, 2, 3, 5 and 7 days. The mixture on each dish was redissolved in diethyl ether and transferred to a 2 ml vial. After evaporation of the solvent, the residue was dissolved in the HPLC mobile phase (100 μl) and 10% of the solution was analysed by HPLC using a reverse phase column (octadecylsilane) (4.6 mm×250 mm, 3 μm) and a refractive index detector.
Autoxidation of arachidonic acid was conducted in the presence of compound 19 and lauric acid. Stock solutions of arachidonic acid, compound 19 and lauric acid in dichloromethane with equal concentrations were added to a 25 ml round-bottomed flask, and the solvent was evaporated to leave a thin film on the internal surface of the flask. The flask was then filled with oxygen and kept in the dark. The percentages of arachidonic acid and compound 19 remaining after 7 days were measured by HPLC. The same assay was carried out simultaneously with several flasks but the results were not reproducible. The variation was attributed to differences in oxygen concentration and the surface area of the thin films formed in the flasks. Therefore, in order to establish a reproducible assay for the analysis of the autoxidation of arachidonic acid, Petri-dishes with uniform size (80 mm in diameter) were used instead of flasks for thin film formation and the oxidation was carried out by placing the Petri-dishes in a dessicator filled with oxygen. To assess this method, thin firms of arachidonic acid with lauric acid as a standard were prepared on six Petri-dishes using identical treatment, and then subjected to oxidation in the same dessicator filled with oxygen. After 24 h, the percentage of arachidonic acid recovered following autoxidation in each Petri-dish was determined by HPLC. […] The advantage of using a Petri-dish over a flask is that the thin films on each Petri-dish are spread over the same area, and each Petri-dish is exposed to oxygen to the same extent.
Using the Petri-dish assay method, the effects of the thia PUFAs and sulfides 106 and 108-111, along with compounds 18, 19 and 3-[(Z,Z,Z)-(octadeca-9,12,15-trienylthio)] propionic acid 112 which were available in the laboratory, on the autoxidation of arachidonic acid, were examined. In addition, the stability of these compounds in the presence of arachidonic acid was also investigated. Arachidonic acid and lauric acid as a standard were mixed with each sulfur compound at different ratios and the mixtures were subjected to thin film autoxidation. The mixtures were analysed by HPLC after 1,2,3,5 and 7 days.

[4] = test system: Plasmodium falciparum isolates 3D7, FC27, K+; test: Radiometric (3H-hypoxanthine) assay on asexual blood stages of P. falciparum; assay type: cell-based; conditions: for EC50: Plasmodium falciparum, read-out: EC50 against P. falciparum
Method: Using the radiometric assay^(36), the effects of the Lx compounds were examined for antimalarial activity. The Plasmodium falciparum isolates used were 3D7, FC27, K^1 and K^+. These were maintained in human blood group O^+ erythrocytes essentially as described previously using RPM-1640 (HEPES modification) supplemented with 0.25% D-glucose, 0.2% Tess buffer (Sigma Chemical Co, Lt Louis, Mo.) and 10% heat inactivated (56° C., 20 min) human blood group AB serum. Cultures were maintained in tissue culture flasks (Corning, N.Y.) at 37° C. under an atmosphere of 1% 2, 5% CO2 in N2. P. falciparum cultures containing approximately 3.0:% parasitaemia were adjusted to 1×10^8 erythrocytes/ml. To 50 μl of the parasite-erythrocyte culture (5×10^6 erythrocytes) in wells of 96-well microdilution plates wvas added 50 μl of the designated concentration of fatty acid or equivalent amounts of solutions or media. The treated cultures were incubated at 37° C. for 4 h and then pulsed with 50 μl (2.5 μCi) of ^3H-hypoxanthine. After a further 18 h incubation the parasites-erythrocytes were harvested onto glass fibre filter papers using a cell harvester. The amount of radioactivity incorporated was measured in a β-counter. The results have been expressed as % inhibition of parasite growth i.e. the dpm in the fatty acid diluent−dpm in the fatty acid treated cultures/dpm in diluent×100.

[5] = ratio 2:1, with AIBN at 10% the amount of arachidonic acid, 1 day
[6] = ratio 2:1, with AIBN at 10% the amount of arachidonic acid, 2 days
[7] = ratio 2:1, with AIBN at 10% the amount of arachidonic acid, 3 days
[8] = ratio 2:1, with AIBN at 10% the amount of arachidonic acid, 5 days
[9] = ratio 2:1, with AIBN at 10% the amount of arachidonic acid, 7 days
[10] = ratio arachidonic acid:compound 1:1, 1 day
[11] = ratio arachidonic acid:compound 1:1, 2 days
[12] = ratio arachidonic acid:compound 1:1, 3 days
[13] = ratio arachidonic acid:compound 1:1, 5 days
[14] = ratio arachidonic acid:compound 1:1, 7 days
[15] = ratio arachidonic acid:compound 2:1, 1 day
[16] = ratio arachidonic acid:compound 2:1, 2 days
[17] = ratio arachidonic acid:compound 2:1, 3 days
[18] = ratio arachidonic acid:compound 2:1, 5 days
[19] = ratio arachidonic acid:compound 2:1, 7 days
[20] = ratio arachidonic acid:compound 10:1, 1 day
[21] = ratio arachidonic acid:compound 10:1, 2 days
[22] = ratio arachidonic acid:compound 10:1, 3 days

CC/C=C\C/C=C\C/C=C\C/C=C\C/C=C\C/C=C\CCC[N+](=O)[O-] [Lx5, (a11-z)-1-Nitro-4,7,10,13,16,19-docosahexaene]
Effect on 15-LO catalysed oxidation of AA [1]: Nil

CCCCC/C=C\C/C=C\C/C=C\C/C=C\CCCCSCCC(=O)O [Compound 19]
Percentage of arachidonic acid recovered in the presence of the compound ([2]; ratio 1:1, 10% AIBN 60 h): 100%
Percentage of compound recovered (with arachidonic acid) ([2]; ratio 1:1, 10% AIBN 60 h): 96%
Percentage of arachidonic acid recovered in the presence of the compound ([2]; ratio 1:1, no additive 70 h): 101%
Percentage of compound recovered (with arachidonic acid) ([2]; ratio 1:1, no additive 70 h): 98%
Percentage of arachidonic acid recovered in the presence of the compound ([2]; ratio 1:1, no additive 7 day): 102%
Percentage of compound recovered (with arachidonic acid) ([2]; ratio 1:1, no additive 7 day): 96%
Autoxidation of arachidonic acid in the presence of the compound (in words) ([2]; ratio 1:1, with or without AIBN): completely inhibited
Antioxidant effect on autoxidation of arachidonic acid (in words) [3]: effective antioxidants
Antioxidant effect on autoxidation of arachidonic acid (in words) ([3]; 1:1 ratio with arachidonic acid): almost complete prevention of autoxidation
Antioxidant effect on autoxidation of arachidonic acid (in words) ([3]; compound at one-tenth that of arachidonic acid): very slow over the first 3 days
Arachidonic acid (%) recovered following autoxidation in the presence of the compound [3, 5]: 100%
Compound (%) recovered following autoxidation with arachidonic acid [3, 5]: 98%
Arachidonic acid (%) recovered following autoxidation in the presence of the compound [3, 6]: 98%
Compound (%) recovered following autoxidation with arachidonic acid [3, 6]: 95%
Arachidonic acid (%) recovered following autoxidation in the presence of the compound [3, 7]: 94%
Compound (%) recovered following autoxidation with arachidonic acid [3, 7]: 80%
Arachidonic acid (%) recovered following autoxidation in the presence of the compound [3, 8]: 49%
Compound (%) recovered following autoxidation with arachidonic acid [3, 8]: 47%
Arachidonic acid (%) recovered following autoxidation in the presence of the compound [3, 9]: 35%
Compound (%) recovered following autoxidation with arachidonic acid [3, 9]: 43%
Arachidonic acid (%) recovered following autoxidation in the presence of the compound [3, 10]: 99%
Compound (%) recovered following autoxidation with arachidonic acid [3, 10]: 99%
Arachidonic acid (%) recovered following autoxidation in the presence of the compound [3, 11]: 100%
Compound (%) recovered following autoxidation with arachidonic acid [3, 11]: 100%
Arachidonic acid (%) recovered following autoxidation in the presence of the compound [3, 12]: 99%
Compound (%) recovered following autoxidation with arachidonic acid [3, 12]: 99%
Arachidonic acid (%) recovered following autoxidation in the presence of the compound [3, 13]: 99%
Compound (%) recovered following autoxidation with arachidonic acid [3, 13]: 98%
Arachidonic acid (%) recovered following autoxidation in the presence of the compound [3, 14]: 98%
Compound (%) recovered following autoxidation with arachidonic acid [3, 14]: 99%
Arachidonic acid (%) recovered following autoxidation in the presence of the compound [3, 15]: 100%
Compound (%) recovered following autoxidation with arachidonic acid [3, 15]: 98%
Arachidonic acid (%) recovered following autoxidation in the presence of the compound [3, 16]: 99%
Compound (%) recovered following autoxidation with arachidonic acid [3, 16]: 96%
Arachidonic acid (%) recovered following autoxidation in the presence of the compound [3, 17]: 100%
Compound (%) recovered following autoxidation with arachidonic acid [3, 17]: 96%
Arachidonic acid (%) recovered following autoxidation in the presence of the compound [3, 18]: 98%
Compound (%) recovered following autoxidation with arachidonic acid [3, 18]: 94%
Arachidonic acid (%) recovered following autoxidation in the presence of the compound [3, 19]: 97%
Compound (%) recovered following autoxidation with arachidonic acid [3, 19]: 90%
Arachidonic acid (%) recovered following autoxidation in the presence of the compound [3, 20]: 99%
Compound (%) recovered following autoxidation with arachidonic acid [3, 20]: 95%
Arachidonic acid (%) recovered following autoxidation in the presence of the compound [3, 21]: 99%
Compound (%) recovered following autoxidation with arachidonic acid [3, 21]: 87%
Arachidonic acid (%) recovered following autoxidation in the presence of the compound [3, 22]: 87%
Compound (%) recovered following autoxidation with arachidonic acid [3, 22]: 38%
Arachidonic acid (%) recovered following autoxidation in the presence of the compound ([3]; ratio arachidonic acid:compound 10:1, 5 days): 42%
Arachidonic acid (%) recovered following autoxidation in the presence of the compound ([3]; ratio arachidonic acid:compound 10:1, 7 days): 17%

CC/C=C\C/C=C\C/C=C\C/C=C\C/C=C\C/C=C\CCC(=O)O [22:6n-3, docosahexaenoic acid, reference compound]
EC50 ([4]; 3D7, isolate FC27): 12 µg/mL (≈ 36.5 µM)
EC50 ([4]; 3D7, isolate K+): 4 µg/mL (≈ 12.2 µM)
Reduction of antimalarial activity by human serum ([4]; compound 20 μg/ml, presence of human serum): 85%

CCCCC/C=C\C/C=C\C/C=C\CCCCCOCC(=O)O [Compound 16, (Z,Z,Z)-(octadeca-6,9,12-trienyloxy) acetic acid]
Percentage of arachidonic acid recovered in the presence of the compound ([2]; ratio 1:1, 10% AIBN 60 h): 17%
Percentage of compound recovered (with arachidonic acid) ([2]; ratio 1:1, 10% AIBN 60 h): 11%
Percentage of arachidonic acid recovered in the presence of the compound ([2]; ratio 1:1, no additive 70 h): 97%
Percentage of compound recovered (with arachidonic acid) ([2]; ratio 1:1, no additive 70 h): 88%
Percentage of arachidonic acid recovered in the presence of the compound ([2]; ratio 1:1, no additive 7 day): 23%
Percentage of compound recovered (with arachidonic acid) ([2]; ratio 1:1, no additive 7 day): 27%
